Results taken from patent US20140343048A1, “6-DIFLUOROMETHYL-5,6-DIHYDRO-2H-[1,4]OXAZIN-3-AMINE DERIVATIVES” (Janssen Pharmacetuica NV, priority 2011, published 2014).

Assays:
[1] = molecular target: recombinant BACE1 protein (Homo sapiens, UniProt P56817); assay: Biochemical FRET based assay; details: recombinant BACE1 1 μg/ml, 120 minutes, room temperature, pH 5.0; read-out: Biochemical FRET based assay pIC50 (converted)
Description: This assay is a Fluorescence Resonance Energy Transfer Assay (FRET) based assay. The substrate for this assay is an APP derived 13 amino acids peptide that contains the ‘Swedish’ Lys-Met/Asn-Leu mutation of the amyloid precursor protein (APP) beta-secretase cleavage site. This substrate also contains two fluorophores: (7-methoxycoumarin-4-yl) acetic acid (Mca) is a fluorescent donor with excitation wavelength at 320 nm and emission at 405 nm and 2,4-Dinitrophenyl (Dnp) is a proprietary quencher acceptor. […] Upon cleavage by BACE1, the fluorophore Mca is separated from the quenching group Dnp, restoring the full fluorescence yield of the donor. The increase in fluorescence is linearly related to the rate of proteolysis.
Briefly in a 384-well format recombinant BACE1 protein in a final concentration of 1 μg/ml is incubated for 120 minutes at room temperature with 10 μm substrate in incubation buffer (40 mM Citrate buffer pH 5.0, 0.04% PEG, 4% DMSO) in the absence or presence of compound. Next the amount of proteolysis is directly measured by fluorescence measurement at T=0 and T=120 (excitation at 320 nm and emission at 405 nm). Results are expressed in RFU (Relative Fluorescence Units), as difference between T120 and T0.
From this an IC50 value (inhibitory concentration causing 50% inhibition of activity) can be obtained.

[2] = tested on: Abeta 1-42 produced and secreted by human neuroblastoma SKNBE2 cells expressing hAPP695; assay: Cellular αLisa assay in SKNBE2 cells, Abeta 42; type: cell-based; details: incubated for 18 hours, read-out: Cellular αLisa assay in SKNBE2 cells Abeta 42 pIC50 (converted)
Procedure: (§1) In two αLisa assays the levels of Abeta total and Abeta 1-42 produced and secreted into the medium of human neuroblastoma SKNBE2 cells are quantified. The assay is based on the human neuroblastoma SKNBE2 expressing the wild type Amyloid Precursor Protein (hAPP695). The compounds are diluted and added to these cells, incubated for 18 hours and then measurements of Abeta 1-42 and Abeta total are taken. Abeta total and Abeta 1-42 are measured by sandwich αLisa. αLisa is a sandwich assay using biotinylated antibody AbN/25 attached to streptavidin coated beads and antibody Ab4G8 or cAb42/26 conjugated acceptor beads for the detection of Abeta total and Abeta 1-42 respectively. In the presence of Abeta total or Abeta 1-42, the beads come into close proximity. The excitation of the donor beads provokes the release of singlet oxygen molecules that trigger a cascade of energy transfer in the acceptor beads, resulting in light emission. Light emission is measured after 1 hour incubation (excitation at […] and emission at 615 nm).
(§2) A best-fit curve is fitted by a minimum sum of squares method to the plot of % Controlmin versus compound concentration. From this an IC50 value (inhibitory concentration causing 50% inhibition of activity) can be obtained.

[3] = tested on: Abeta total produced and secreted by human neuroblastoma SKNBE2 cells expressing hAPP695; assay: Cellular αLisa assay in SKNBE2 cells, Abeta total; type: cell-based; details: incubated for 18 hours, read-out: Cellular αLisa assay in SKNBE2 cells Abetatotal pIC50 (converted)
Procedure: as §1, §2

[4] = tested on: Aβ42 in the soluble fraction of brain homogenates; assay: In vivo efficacy: brain soluble Aβ42 lowering (ELISA); parameters: species or system mouse; details: p.o., non-transgenic animals
Description: (§3) To determine whether acute administration of an Aβ42 peptide lowering agent would reduce Aβ peptide levels in vivo, non-transgenic rodents, e.g. mice or rats were used. Animals treated with the Aβ peptide lowering agent were examined and compared to those untreated or treated with vehicle and brain levels of soluble Aβ42 and total Aβ were quantitated by standard techniques, for example, using ELISA. Treatment periods varied from hours (h) to days and were adjusted based on the results of the Aβ42 lowering once a time course of onset of effect could be established.
(§4) A typical protocol for measuring Aβ42 lowering in vivo is shown but it is only one of many variations that could be used to optimize the levels of detectable Aβ. For example, Aβ peptide lowering compounds were formulated in 20% hydroxypropyl β cyclodextrin. The Aβ peptide lowering agents were administered as a single oral dose (p.o.) or a single subcutaneous dose (s.c.) to overnight fasted animals. After a certain time, usually 2 or 4 h (as indicated in Table 7), the animals were sacrificed and A1342 levels were analysed.
(§5) Blood was collected by decapitation and exsanguinations in EDTA-treated collection tubes. […] The left hemisphere was stored at −18° C. for quantitative analysis of test compound levels. […]
(§6) Mouse brains from non-transgenic animals were resuspended in 8 volumes of 0.4% DEA (diethylamine)/50 mM NaCl containing protease inhibitors (Roche-11873580001 or 04693159001) per gram of tissue, e.g. for 0.158 g brain, add 1.264 ml of 0.4% DEA. […] Nine parts of supernatant were neutralized with 1 part 0.5 M Tris-HCl pH 6.8 and used to quantify Aβtotal and Aβ42.
(§7) To quantify the amount of Aβtotal and Aβ42 in the soluble fraction of the brain homogenates, Enzyme-Linked-Immunosorbent-Assays were used. […] Following this incubation and subsequent wash steps the ELISA for Aβ42 quantification was finished by addition of Quanta Blu fluorogenic peroxidase substrate according to the manufacturer's instructions (Pierce Corp., Rockford, Ill.). A reading was performed after 10 to 15 min (excitation 320 nm/emission 420 nm).

[5] = tested on: Aβtotal in the soluble fraction of brain homogenates; assay: In vivo efficacy: brain soluble Aβtotal lowering (ELISA); parameters: species or system mouse; details: p.o., non-transgenic animals
Description: as §3, §4, §5, §6
as §7, with “nm). […]” for “nm).”

[6] = 10 mpk, 2 h after administration
[7] = 30 mpk, 4 h after administration

recombinant BACE1 protein, sequence (P56817 46-501): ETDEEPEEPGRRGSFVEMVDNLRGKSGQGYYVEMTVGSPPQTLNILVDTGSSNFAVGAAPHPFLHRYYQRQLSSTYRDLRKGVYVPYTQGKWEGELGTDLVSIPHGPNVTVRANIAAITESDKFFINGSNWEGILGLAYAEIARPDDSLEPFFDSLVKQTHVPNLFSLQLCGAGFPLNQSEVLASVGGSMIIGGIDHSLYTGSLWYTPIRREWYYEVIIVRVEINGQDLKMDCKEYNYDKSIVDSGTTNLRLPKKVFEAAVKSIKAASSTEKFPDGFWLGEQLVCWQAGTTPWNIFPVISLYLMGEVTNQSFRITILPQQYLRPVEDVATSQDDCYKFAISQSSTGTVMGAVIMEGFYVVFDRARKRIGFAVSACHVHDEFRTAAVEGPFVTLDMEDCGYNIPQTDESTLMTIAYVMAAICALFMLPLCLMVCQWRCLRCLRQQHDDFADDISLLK

CCC1(c2cc(NC(=O)c3cnc(OC)cn3)ccc2F)N=C(N)COC1C(F)F (racemic) [Compound 3, cis-rac-N-{3-[5-Amino-2-(difluoromethyl)-3-ethyl-3,6-dihydro-2H-1,4-oxazin-3-yl]-4-fluorophenyl}-5-methoxypyrazine-2-carboxamide]
IC50 [1]: 63.1 nM | IC50 [2]: 4.17 nM | IC50 [3]: 3.72 nM

COc1cnc(C(=O)Nc2ccc(F)c([C@@]3(C)N=C(N)COC3C(F)F)c2)cn1 (single isomer, unassigned) [Compound 1, N-{3-[(2R*,3R)-5-Amino-2-(difluoromethyl)-3-methyl-3,6-dihydro-2H-1,4-oxazin-3-yl]-4-fluorophenyl}-5-methoxypyrazine-2-carboxamide]
IC50 [1]: 35.5 nM | IC50 [2]: 4.17 nM | IC50 [3]: 4.27 nM | Aβ42 (% Ctrl)_Mean [4, 6]: 62 % Ctrl | Aβtotal (% Ctrl)_Mean [5, 6]: 59 % Ctrl

C[C@]1(c2cc(NC(=O)c3ccc(F)cn3)ccc2F)N=C(N)COC1C(F)F (single isomer, unassigned) [Compound 2, N-{3-[(2R*,3R)-5-Amino-2-(difluoromethyl)-3-methyl-3,6-dihydro-2H-1,4-oxazin-3-yl]-4-fluorophenyl}-5-fluoropyridine-2-carboxamide]
IC50 [1]: 35.5 nM | IC50 [2]: 8.51 nM | IC50 [3]: 8.51 nM | Aβ42 (% Ctrl)_Mean [4, 6]: 91 % Ctrl | Aβtotal (% Ctrl)_Mean [5, 6]: 96 % Ctrl | melting point: 205.7 °C

C[C@]1(c2cc(-c3cncnc3)ccc2F)N=C(N)COC1C(F)F (single isomer, unassigned) [Compound 4, (5R,6R*)-6-(Difluoromethyl)-5-(2-fluoro-5-pyrimidin-5-ylphenyl)-5-methyl-5,6-dihydro-2H-1,4-oxazin-3-amine]
IC50 [1]: 427 nM | IC50 [2]: 129 nM | IC50 [3]: 129 nM

C[C@]1(c2cccc(-c3cncnc3)c2)N=C(N)COC1C(F)F (single isomer, unassigned) [Compound 5, (5R,6R*)-6-(Difluoromethyl)-5-methyl-5-(3-pyrimidin-5-ylphenyl)-5,6-dihydro-2H-1,4-oxazin-3-amine]
IC50 [1]: 457 nM | IC50 [2]: 117 nM | IC50 [3]: 117 nM

CC1(c2cc(NC(=O)c3ccc(Cl)cn3)ccc2F)N=C(N)COC1C(F)F (single isomer, unassigned) [Compound 6, N-{3-[(2R*3R)-5-Amino-2-(difluoromethyl)-3-methyl-3,6-dihydro-2H-1,4-oxazin-3-yl]-4-fluorophenyl}-5-chloropyridine-2-carboxamide]
IC50 [2]: 3.31 nM | IC50 [3]: 3.39 nM

C[C@]1(c2cc(NC(=O)c3ccc(C#N)cn3)ccc2F)N=C(N)COC1C(F)F (single isomer, unassigned) [Compound 7, N-{3-[(2R*,3R)-5-Amino-2-(difluoromethyl)-3-methyl-3,6-dihydro-2H-1,4-oxazin-3-yl]-4-fluorophenyl}-5-cyanopyridine-2-carboxamide]
IC50 [1]: 53.7 nM | IC50 [2]: 3.47 nM | IC50 [3]: 3.09 nM | Aβ42 (% Ctrl)_Mean [4, 7]: 53 % Ctrl | Aβtotal (% Ctrl)_Mean [5, 7]: 55 % Ctrl | melting point: 230.9 °C
